One data set concerns MDA-MB-231. Kind of data set: Cytotoxicity against MCT1-deficient human MDA-MB-231 cells at 10 uM measured after 96 hrs by MTT assay. The format is cell-based. Conditions: mda-mb-231, 96 h. (Tetrazolium assays rely on reduction of a dye to a coloured formazan, in cell work by metabolically active cells.)
Data set [1] in a line: Drug uptake in Sprague-Dawley rat blood at 20 mg/kg, ip measured after 6 hrs by LC-MS/MS analysis. The format is ADME, organism-based. Conditions: whole blood, read-out: Drug uptake.
Data set [2] in a line: Drug uptake in NOD/SCID mouse tumor measured after 24 hrs. Conditions: read-out: Drug uptake. The format is ADME, Neoplasm.
In data set [3] the target is T1, Monocarboxylate transporter 1 (Homo sapiens) (UniProt P53985).
T1 sequence (whole entry): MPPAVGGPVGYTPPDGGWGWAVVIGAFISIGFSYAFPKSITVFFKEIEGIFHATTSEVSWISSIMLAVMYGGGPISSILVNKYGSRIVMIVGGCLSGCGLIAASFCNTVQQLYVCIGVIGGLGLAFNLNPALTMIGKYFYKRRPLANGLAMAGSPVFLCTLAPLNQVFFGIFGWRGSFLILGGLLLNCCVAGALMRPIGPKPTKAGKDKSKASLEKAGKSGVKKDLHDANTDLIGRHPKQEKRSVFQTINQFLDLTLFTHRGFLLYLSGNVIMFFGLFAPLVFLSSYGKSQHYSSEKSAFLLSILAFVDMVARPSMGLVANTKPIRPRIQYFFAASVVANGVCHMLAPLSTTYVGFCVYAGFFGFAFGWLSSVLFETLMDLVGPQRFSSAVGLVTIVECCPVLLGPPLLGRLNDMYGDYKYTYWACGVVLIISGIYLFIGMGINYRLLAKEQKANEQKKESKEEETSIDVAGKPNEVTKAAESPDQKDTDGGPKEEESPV
Kind of data set: Activity at MCT1 (unknown origin) using [14C]lactate by cell based lactate flux assay.

Data set [4] can be described thus: Drug uptake in Sprague-Dawley rat brain at 20 mg/kg, ip measured after 6 hrs by LC-MS/MS analysis. The format is ADME, organism-based. Conditions: read-out: Drug uptake.
The nature of data set [5]: Drug uptake in Sprague-Dawley rat spleen at 20 mg/kg, ip measured after 6 hrs by LC-MS/MS analysis. Conditions: read-out: Drug uptake. The format is ADME, organism-based.
Data set [6] in a line: Drug uptake in Sprague-Dawley rat brain at 20 mg/kg, ip measured after 7 days by LC-MS/MS analysis. The format is ADME, organism-based. Conditions: read-out: Drug uptake.
Data set [7] can be described thus: Drug uptake in Sprague-Dawley rat liver at 20 mg/kg, ip measured after 24 hrs by LC-MS/MS analysis. The format is ADME, organism-based. The settings on record: read-out: Drug uptake.
A short description of data set [8]: Drug uptake in Sprague-Dawley rat lung at 20 mg/kg, ip measured after 6 hrs by LC-MS/MS analysis. The format is ADME, organism-based. The settings on record: read-out: Drug uptake.
The nature of data set [9]: Drug uptake in Sprague-Dawley rat kidney at 20 mg/kg, ip measured after 7 days by LC-MS/MS analysis. The settings on record: read-out: Drug uptake. The format is ADME, organism-based.
Data set [10] in a line: Drug uptake in Sprague-Dawley rat lung at 20 mg/kg, ip measured after 24 hrs by LC-MS/MS analysis. The format is ADME, organism-based. The settings on record: read-out: Drug uptake.
The nature of data set [11]: Drug uptake in Sprague-Dawley rat liver at 20 mg/kg, ip measured after 6 hrs by LC-MS/MS analysis. The format is ADME, organism-based. The settings on record: read-out: Drug uptake.
Data set [12] in a line: Drug uptake in Sprague-Dawley rat blood at 20 mg/kg, ip measured after 24 hrs by LC-MS/MS analysis. The format is ADME, organism-based. Conditions: whole blood, read-out: Drug uptake.
Data set [13] can be described thus: Drug uptake in Sprague-Dawley rat liver at 20 mg/kg, ip measured after 7 days by LC-MS/MS analysis. The format is ADME, organism-based. Conditions: read-out: Drug uptake.
The nature of data set [14]: Drug uptake in Sprague-Dawley rat kidney at 20 mg/kg, ip measured after 24 hrs by LC-MS/MS analysis. The format is ADME, organism-based. The settings on record: read-out: Drug uptake.
Data set [15] in a line: Drug uptake in Sprague-Dawley rat plasma at 20 mg/kg, ip measured after 6 hrs by LC-MS/MS analysis. The format is ADME, organism-based.
A short description of data set [16]: Drug uptake in Sprague-Dawley rat spleen at 20 mg/kg, ip measured after 24 hrs by LC-MS/MS analysis. The format is ADME, organism-based. The settings on record: read-out: Drug uptake.
Data set [17] can be described thus: Drug uptake in Sprague-Dawley rat brain at 20 mg/kg, ip measured after 24 hrs by LC-MS/MS analysis. Conditions: read-out: Drug uptake. The format is ADME, organism-based.
Data set [18] can be described thus: Drug uptake in Sprague-Dawley rat kidney at 20 mg/kg, ip measured after 6 hrs by LC-MS/MS analysis. The format is ADME, organism-based. The settings on record: read-out: Drug uptake.
Data set [19] is described as follows: Drug uptake in Sprague-Dawley rat plasma at 20 mg/kg, ip measured after 24 hrs by LC-MS/MS analysis. The format is ADME, organism-based.
Data set [20] in a line: Drug uptake in Sprague-Dawley rat plasma at 20 mg/kg, ip measured after 7 days by LC-MS/MS analysis. The format is ADME, organism-based.
The nature of data set [21]: Drug uptake in Sprague-Dawley rat blood at 20 mg/kg, ip measured after 7 days by LC-MS/MS analysis. Conditions: whole blood, read-out: Drug uptake. The format is ADME, organism-based.
Data set [22] can be described thus: Drug uptake in Sprague-Dawley rat spleen at 20 mg/kg, ip measured after 7 days by LC-MS/MS analysis. The format is ADME, organism-based. Conditions: read-out: Drug uptake.
A short description of data set [23]: Drug uptake in Sprague-Dawley rat lung at 20 mg/kg, ip measured after 7 days by LC-MS/MS analysis. Conditions: read-out: Drug uptake. The format is ADME, organism-based.

This passage reports Activity and concentration results from ChEMBL document CHEMBL3817813, “Exploiting the co-reliance of tumours upon transport of amino acids and lactate: Gln and Tyr conjugates of MCT1 inhibitors” (Medchemcomm, 2016).

Molecules are shown by their SMILES. Calls of active or inactive are those of the source. The rule behind the calls is not given here.

Consider `CC(C)Cc1nn(C)c(=O)c2c(SCCCO)n(Cc3ccc(Cl)nc3)cc12`, for which, in the data set on MDA-MB-231, the Activity entry was “Non-toxic”.
The same measure, in the same setting: under `CC(C)Cc1nn(C)c(=O)c2c(SCCCO)n(Cc3cnc(Cl)c4ccccc34)cc12` stands “Non-toxic”.
With `CC(C)Cc1nn(C)c(=O)c2c(SCCCO)n(Cc3ccc(C#CCCCOc4ccc(C[C@H](N)C(=O)O)cc4)c4ccccc34)cc12`, the concentration at 6 h was 4330 nM in data set [1]; 110 nM in [4]; 2260 nM in [5]; 1540 nM in data set [8]; 2500 nM in [11]; 3270 nM in data set [15]. Besides, in data set [18], the concentration at 6 h was 1620 nM. The concentration at 24 h came out at 300 nM in data set [2]; 940 nM in [7]; 520 nM in [10]; 76 nM in [12]; 960 nM in data set [14]; 1060 nM in data set [16]. Besides, the concentration at 24 h stood at 62 nM in [17] and 12 nM in [19]. In addition, the outcome in [3] was Active. In addition, the concentration at 168 h in [6] was found to be 43 nM; in [9], 210 nM; in data set [13] it was 98 nM; in [20], 4 nM; in [21], 41 nM; in data set [22] it was 190 nM. Also, in data set [23], the concentration at 168 h turned out to be 110 nM. Moreover, in the data set on MDA-MB-231, the Activity result is reported as “Non-toxic”.
Consider `CC(C)Cc1nn(C)c(=O)c2c(SCCCO)n(Cc3ccc(NCCCCCN)nc3)cc12`, for which the Activity result with MDA-MB-231 is recorded as “Non-toxic”.
In the case of `CC(C)Cc1nn(C)c(=O)c2c(SCCCO)n(Cc3ccc(C#CCCCNC(=O)[C@@H](N)CCC(N)=O)c4ccccc34)cc12`, the result in [3] was Active. In addition, the Activity result in the data set on MDA-MB-231 is on record as “Non-toxic”.
On to `CC(C)Cc1nn(C)c(=O)c2c(SCCCO)n(Cc3cnc(NCCCCCN)c4ccccc34)cc12`, for which, in the data set on MDA-MB-231, the Activity entry is given as “Non-toxic”.
Turning to `CC(C)Cc1nn(C)c(=O)c2c(SCCCO)n(Cc3cnc(NCCCCCNC(=O)[C@@H](N)CCC(N)=O)c4ccccc34)cc12`, in data set [3], the result was Active. For the same compound, the Activity result in the data set on MDA-MB-231 was “Non-toxic”.
As for `CC(C)Cc1nn(C)c(=O)c2c(SCCCO)n(Cc3ccnc(NCCCCCN)c3)cc12`, the Activity entry in the data set on MDA-MB-231 is given as “Non-toxic”.
In the case of `CC(C)Cc1nn(C)c(=O)c2c(SCCCO)n(Cc3ccc(Br)c4ccccc34)cc12`, the Activity entry with MDA-MB-231 is recorded as “Non-toxic”.
On the same count and under the same terms, under `CC(C)Cc1nn(C)c(=O)c2c(SCCCO)n(Cc3cc(Cl)nc4ccccc34)cc12` stands “Non-toxic”; under `CC(C)Cc1nn(C)c(=O)c2c(SCCCO)n(Cc3ccc(NCCCCCNC(=O)[C@@H](N)CCC(N)=O)nc3)cc12`, “Non-toxic”.
`CC(C)Cc1nn(C)c(=O)c2c(SCCCO)n(Cc3cccc4ccccc34)cc12`: the concentration at 6 h turned out to be 140 nM in data set [1]; 190 nM in [4]; 740 nM in data set [5]; 61 nM in [8]; 63 nM in data set [11]; 27 nM in [15]. Further, the concentration at 6 h in [18] was 120 nM. For the same compound, the concentration at 24 h in data set [7] was determined as 60 nM; in data set [10] it was 74 nM; in [12] it was 63 nM; in data set [14], 160 nM; in data set [16] it was 420 nM; in data set [17], 270 nM. Besides, the concentration at 24 h in [19] worked out at 4 nM. Besides, the Activity result with MDA-MB-231 was “Non-toxic”. Besides, in data set [22], the concentration at 168 h was 43 nM.
As for `CC(C)Cc1nn(C)c(=O)c2c(SCCCO)n(Cc3cc(NCCCCCN)nc4ccccc34)cc12`, the Activity entry with MDA-MB-231 is listed as “Non-toxic”.
The same measure, in the same setting: the same measure for `CC(C)Cc1nn(C)c(=O)c2c(SCCCO)n(Cc3ccnc(NCCCCCNC(=O)[C@@H](N)CCC(N)=O)c3)cc12`: “Non-toxic”; for `CC(C)Cc1nn(C)c(=O)c2c(SCCCO)n(Cc3ccnc(Cl)c3)cc12`: “Non-toxic”; for `CC(C)Cc1nn(C)c(=O)c2c(SCCCO)n(Cc3cc(NCCCCCNC(=O)[C@@H](N)CCC(N)=O)nc4ccccc34)cc12`: “Non-toxic”.
